The record followed here is patent US10131642B1, “Aldosterone synthase inhibitors” (Boehringer Ingelheim International GmbH, priority 2015, dated 2018).

The target in assay [1] is cortisol synthase (CYP11B1) (Macaca fascicularis, UniProt A0A2K5ULY1). Nature of the assay: Inhibition of cortisol synthesis (cynomolgus adrenal mitochondria, cortisol by mass spectrometry). It counts as biochemical, cynomolgus monkey. As for the experimental part:
The aldosterone synthase and cortisol synthase inhibition assays employ cynomolgus adrenal gland mitochondria as the source of aldosterone synthase (CYP11B2) and cortisol synthase (CYP11B1). Mitochondria are prepared from frozen cynomolgus monkey adrenal glands according to Method A described in by J. D. McGarry et al. (Biochem. J., 1983, 214, 21-28), with a final resuspension in the AT buffer described in R. Yamaguchi et al. (Cell Death and Differentiation, 2007, 14, 616-624), frozen as aliquots in liquid nitrogen and stored at −80° C. until use. Activity of CYP11B2 and CYP11B1 in these preparations is defined as the amount of enzyme that generates 1 pmol of product in one hour under the conditions described. Dose dependent inhibition is quantified by the inclusion of compound at various concentrations. Maximum activity (100%) is defined by reactions containing NADPH, but without compound. Activities at each concentration are expressed as a percentage of the maximum activity (y-axis) and plotted against concentration of compound (x-axis) and the concentration corresponding to 50% activity (IC50) determined using the XLFit curve-fitting program using a 4-parameter logistic model. Assays are performed as for aldosterone synthase except for the use of 150 units of CYP11B1, 11-deoxycortisol as substrate and cortisol measured as product.

Assay [2] concerns the target T1, aldosterone synthase (CYP11B2) (Macaca fascicularis, UniProt A0A2K5UPL9).
T1 construct: cynomolgus adrenal gland mitochondria as the source of aldosterone synthase (CYP11B2); from tissue; host or cells: cynomolgus monkey adrenal gland mitochondria
T1 sequence (A0A2K5UPL9 1-503): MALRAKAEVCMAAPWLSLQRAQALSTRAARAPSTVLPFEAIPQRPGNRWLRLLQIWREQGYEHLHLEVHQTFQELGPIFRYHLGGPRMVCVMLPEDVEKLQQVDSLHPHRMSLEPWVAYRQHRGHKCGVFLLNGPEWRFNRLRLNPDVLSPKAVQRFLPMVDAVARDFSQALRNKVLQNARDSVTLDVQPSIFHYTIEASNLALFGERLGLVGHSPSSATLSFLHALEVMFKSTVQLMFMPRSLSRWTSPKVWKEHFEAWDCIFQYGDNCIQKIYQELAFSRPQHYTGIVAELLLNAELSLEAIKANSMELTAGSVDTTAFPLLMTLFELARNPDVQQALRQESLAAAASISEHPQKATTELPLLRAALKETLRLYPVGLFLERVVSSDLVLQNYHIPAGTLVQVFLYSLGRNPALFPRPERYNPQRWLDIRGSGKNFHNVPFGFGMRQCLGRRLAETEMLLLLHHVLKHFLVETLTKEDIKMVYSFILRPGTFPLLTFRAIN
Nature of the assay: Inhibition of aldosterone synthase (cynomolgus adrenal mitochondria, aldosterone by mass spectrometry). It counts as biochemical, cynomolgus monkey. Particulars: cynomolgus adrenal gland mitochondria, 2 μM corticosterone substrate, 90 minutes at 37° C. As to the method:
The aldosterone synthase and cortisol synthase inhibition assays employ cynomolgus adrenal gland mitochondria as the source of aldosterone synthase (CYP11B2) and cortisol synthase (CYP11B1). Mitochondria are prepared from frozen cynomolgus monkey adrenal glands according to Method A described in by J. D. McGarry et al. (Biochem. J., 1983, 214, 21-28), with a final resuspension in the AT buffer described in R. Yamaguchi et al. (Cell Death and Differentiation, 2007, 14, 616-624), frozen as aliquots in liquid nitrogen and stored at −80° C. until use. Activity of CYP11B2 and CYP11B1 in these preparations is defined as the amount of enzyme that generates 1 pmol of product in one hour under the conditions described.
Assays are performed in 96-well format in a final volume of 60 µL/well, containing 100 mM potassium phosphate, pH 7.4, 1% (v/v) DMSO, and additionally, 2 μM of corticosterone and 50 units of CYP11B2 activity. Reactions are started by the addition of NADPH to 1 mM and allowed to proceed for 90 minutes at 37° C. Reactions are terminated by the addition of 60 μL of MeCN containing an internal standard for mass spectrometry. One hundred microliters are then transferred to a glass filter plate and centrifuged at 570×g for 5 minutes and the filtrate is collected. Reaction product aldosterone is quantified by mass spectrometry. To determine the assay blank value (0% activity), NADPH is omitted from some reactions.
Dose dependent inhibition is quantified by the inclusion of compound at various concentrations. Maximum activity (100%) is defined by reactions containing NADPH, but without compound. Activities at each concentration are expressed as a percentage of the maximum activity (y-axis) and plotted against concentration of compound (x-axis) and the concentration corresponding to 50% activity (IC50) determined using the XLFit curve-fitting program using a 4-parameter logistic model.

[3] abbreviates: cynomolgus adrenal gland mitochondria, 11-deoxycortisol as substrate, cortisol measured as product; read-out: CYP11B1 Inhibition IC50.

Structures can show the parent of a compound that is named as a salt. Where two headings read alike, the source gives them in different places. Where only a bound is given, the exact number is not on record here.

The term IC50 denotes the midpoint of a concentration-inhibition curve. On to `CC(=O)N1CCC(Cc2onc3c2C(=O)CC(C(C)C)C3)CC1` (single isomer, unassigned) [Cpd 15A, 3-(1-Acetyl-piperidin-4-ylmethyl)-6-isopropyl-6,7-dihydro-5H-benzo[c]isoxazol-4-one], for which the IC50 amounted to 2800 nM in assay [1] (setting [3]) and 22 nM in assay [2].

For `CC(=O)N1CCC(Cc2onc3c2C(=O)CC(C(C)C)C3)CC1` (single isomer, unassigned) [Cpd 15B, 3-(1-Acetyl-piperidin-4-ylmethyl)-6-isopropyl-6,7-dihydro-5H-benzo[c]isoxazol-4-one], the results for the IC50 in assay [1] (setting [3]) and in assay [2] were 18000 nM and 110 nM, respectively.

Turning to `CC(C)C1CC(=O)c2c(noc2Cc2ccc(C#N)cc2)C1` (single isomer, unassigned) [Cpd 39A, 4-(-6-Isopropyl-4-oxo-4,5,6,7-tetrahydro-benzo[c]isoxazol-3-ylmethyl)-benzonitrile], the values for the IC50 in assay [1] (setting [3]) and in assay [2] were 8300 nM and 230 nM, respectively.

Regarding `CC(C)C1CC(=O)c2c(noc2Cc2ccc(C#N)cc2)C1` (single isomer, unassigned) [Cpd 39B, 4-(-6-Isopropyl-4-oxo-4,5,6,7-tetrahydro-benzo[c]isoxazol-3-ylmethyl)-benzonitrile], the IC50 in assay [1] (setting [3]) was determined as 3400 nM; in assay [2], 120 nM.

Take `O=C1CC2(CCC2)Cc2noc(Cc3ccccc3)c21` [Cpd 1, 6,6-spiro-cyclobutyl-3-benzyl-6,7-dihydro-5-H-benzo[c]isoxazole-4-one]: the values for the IC50 in assay [1] (setting [3]) and in assay [2] were 1100 nM and 7.2 nM, respectively.

On to `O=C1CC(CC2CC2)Cc2noc(Cc3ccccc3)c21` (stereo not drawn) [Cpd 2, 3-Benzyl-6-cyclopropylmethyl-6,7-dihydro-5H-benzo[c]isoxazol-4-one], for which the values for the IC50 in assay [1] (setting [3]) and in assay [2] were 5000 nM and 11 nM, respectively.

In the case of `CC1(C)CC(=O)c2c(noc2Cc2ccc3c(c2)OCCO3)C1` [Cpd 3, 3-(2,3-Dihydro-benzo[1,4]dioxin-6-ylmethyl)-6,6-dimethyl-6,7-dihydro-5H-benzo[c]isoxazol-4-one], the values for the IC50 in assay [1] (setting [3]) and in assay [2] were 590 nM and 17 nM, respectively.

On to `CC(C)C1CC(=O)c2c(noc2CC2CC2)C1` (stereo not drawn) [Cpd 6, 3-Cyclopropylmethyl-6-isopropyl-6,7-dihydro-5H-benzo[c]isoxazol-4-one], for which the IC50 stood at 21000 nM in assay [1] (setting [3]) and 27 nM in assay [2].

With `CC(C)C1CC(=O)c2c(noc2CC2CCOCC2)C1` (stereo not drawn) [Cpd 7, 6-Isopropyl-3-(tetrahydro-pyran-4-ylmethyl)-6,7-dihydro-5H-benzo[c]isoxazol-4-one], the IC50 came out at 20000 nM in assay [1] (setting [3]) and 33 nM in assay [2].

As for `COc1ccc(Cc2onc3c2C(=O)CC(C2CCOCC2)C3)cc1` (stereo not drawn) [Cpd 8, 3-(4-Methoxy-benzyl)-6-(tetrahydro-pyran-4-yl)-6,7-dihydro-5H-benzo[c]isoxazol-4-one], the figures for the IC50 in assay [1] (setting [3]) and in assay [2] were above 100000 nM and 78 nM, respectively.

For the compound `CC1(C)CC(=O)c2c(noc2Cc2ccc(S(C)(=O)=O)cc2)C1` [Cpd 9, 3-(4-Methanesulfonyl-benzyl)-6,6-dimethyl-6,7-dihydro-5H-benzo[c]isoxazol-4-one], the IC50 was found to be 3700 nM in assay [1] (setting [3]) and 84 nM in assay [2].

Regarding `COc1ccc(Cc2onc3c2C(=O)CC(C)(C)C3)cn1` [Cpd 10, 3-(6-Methoxy-pyridin-3-ylmethyl)-6,6-dimethyl-6,7-dihydro-5H-benzo[c]isoxazol-4-one], the IC50 in assay [1] (setting [3]) is 7700 nM; in assay [2], 110 nM.

For the compound `CC1(C)CC(=O)c2c(noc2Cc2cccc(C#N)c2)C1` [Cpd 11, 3-(6,6-Dimethyl-4-oxo-4,5,6,7-tetrahydro-benzo[c]isoxazol-3-ylmethyl)-benzonitrile], the IC50 is 9300 nM in assay [1] (setting [3]) and 140 nM in assay [2].

On to `N#Cc1ccc(Cc2onc3c2C(=O)CC(C2CCOCC2)C3)cc1` (stereo not drawn) [Cpd 12, 4-[4-Oxo-6-(tetrahydro-pyran-4-yl)-4,5,6,7-tetrahydro-benzo[c]isoxazol-3-ylmethyl]-benzonitrile], for which the IC50 is 51000 nM in assay [1] (setting [3]) and 180 nM in assay [2].

In the case of `CC1(C)CC(=O)c2c(noc2Cc2ccc(F)cc2)C1` [Cpd 13, 3-(4-Fluoro-benzyl)-6,6-dimethyl-6,7-dihydro-5H-benzo[c]isoxazol-4-one], the IC50 in assay [1] (setting [3]) stood at 22000 nM; in assay [2], 190 nM.

In the case of `CC(C)C1CC(=O)c2c(noc2CC2CCNCC2)C1` (stereo not drawn) [Cpd 14, 4-(6-Isopropyl-4-oxo-4,5,6,7-tetrahydro-benzo[c]isoxazol-3-ylmethyl)-piperidinium hydrochloride], the IC50 in assay [1] (read-out: CYP11B1 Inhibition IC50; cynomolgus adrenal gland mitochondria, 11-deoxycortisol as substrate, cortisol measured as product) was above 30000 nM; in assay [2], 2400 nM.

As to `CC(=O)N1CCC(Cc2onc3c2C(=O)CC2(CCC2)C3)CC1` [Cpd 16, 3-(1-Acetyl-piperidin-4-ylmethyl)-6,6-spiro-cyclobutyl-6,7-dihydro-5H-benzo[c]isoxazol-4-one], the values for the IC50 in assay [1] (setting [3]) and in assay [2] were 3900 nM and 47 nM, respectively.

Consider `CC(=O)N1CCC(Cc2onc3c2C(=O)CC(C)(C)C3)CC1` [Cpd 17, 3-(1-Acetyl-piperidin-4-ylmethyl)-6,6-dimethyl-6,7-dihydro-5H-benzo[c]isoxazol-4-one], for which the IC50 came out at 24000 nM in assay [1] (setting [3]) and 690 nM in assay [2].

On to `COCC(=O)N1CCC(Cc2onc3c2C(=O)CC(C(C)C)C3)CC1` (stereo not drawn) [Cpd 18, 6-Isopropyl-3-[1-(2-methoxy-acetyl)-piperidin-4-ylmethyl]-6,7-dihydro-5H-benzo[c]isoxazol-4-one], for which the figures for the IC50 in assay [1] (setting [3]) and in assay [2] were 2800 nM and 89 nM, respectively.

On to `CC(C)C1CC(=O)c2c(noc2CC2CCN(C(=O)CO)CC2)C1` (stereo not drawn) [Cpd 19, 3-[1-(2-Hydroxy-acetyl)-piperidin-4-ylmethyl]-6-isopropyl-6,7-dihydro-5H-benzo[c]isoxazol-4-one], for which the figures for the IC50 in assay [1] (setting [3]) and in assay [2] were 9900 nM and 200 nM, respectively.

For the compound `CC(C)C1CC(=O)c2c(noc2CC2CCN(C(=O)CS(C)(=O)=O)CC2)C1` (stereo not drawn) [Cpd 20, 6-Isopropyl-3-[1-(2-methanesulfonyl-acetyl)-piperidin-4-ylmethyl]-6,7-dihydro-5H-benzo[c]isoxazol-4-one], the IC50 stood at 14000 nM in assay [1] (setting [3]) and 410 nM in assay [2].

As to `CC(C)C1CC(=O)c2c(noc2CC2CCN(C(N)=O)CC2)C1` (stereo not drawn) [Cpd 21, 4-(6-Isopropyl-4-oxo-4,5,6,7-tetrahydro-benzo[c]isoxazol-3-ylmethyl)-piperidine-l-carboxylic acid amide], the IC50 was determined as 23000 nM in assay [1] (setting [3]) and 330 nM in assay [2].

On to `NC(=O)N1CCC(Cc2onc3c2C(=O)CC2(CCC2)C3)CC1` [Cpd 22, 4-(6,6-spiro-cyclobutyll-4-oxo-4,5,6,7-tetrahydro-benzo[c]isoxazol-3-ylmethyl)-piperidine-l-carboxylic acid amide], for which the results for the IC50 in assay [1] (setting [3]) and in assay [2] were 3500 nM and 57 nM, respectively.

As to `CC1(C)CC(=O)c2c(noc2Cc2ccc(C#N)cc2)C1` [Cpd 23, 4-(6,6-Dimethyl-4-oxo-4,5,6,7-tetrahydro-benzo[c]isoxazol-3-ylmethyl)-benzonitrile], the IC50 in assay [1] (setting [3]) came to 74000 nM; in assay [2] it was 69 nM.
